In patent US7608712B2, “Pyridine imidazoles and aza-indoles as progesterone receptor modulators” (Janssen Pharmaceutica N.V., priority 2004, dated 2009):

These compounds were tested on T47D human breast cancer cells (assay: T47D alkaline phosphatase assay (In Vitro Test)). Conditions: Homo sapiens, T47D.
Assay type: cell-based
Description: T47D human breast cancer cells are grown in RPMI medium without phenol red (Invitrogen) containing 10% (v/v) heat-inactivated fetal bovine serum (FBS; Hyclone), 1% (v/v) penicillin-streptomycin (Invitrogen), 1% (w/v) glutamine (Invitrogen), and […] insulin (Sigma). Incubation conditions are 37 °C in a humidified 5% (v/v) carbon dioxide environment. For assay, the cells are plated in 96-well tissue culture plates at 10,000 cells per well in assay medium [RPMI medium without phenol red (Invitrogen) containing 5% (v/v) charcoal-treated FBS (Hyclone) and 1% (v/v) penicillin-streptomycin (Invitrogen)]. Two days later, the medium is decanted and the compounds are added in a final concentration of 0.1% (v/v) dimethyl sulfoxide in fresh assay medium. Twenty-four hours later, an alkaline phosphatase assay is performed using a SEAP kit (BD Biosciences Clontech, Palo Alto, Calif.). Briefly, the medium is decanted and the cells are fixed for 30 minutes at room temperature with 5% (v/v) formalin (Sigma). The cells are washed once with room temperature Hank's buffered saline solution (Invitrogen). Equal volumes (0.05 mL) of 1× Dilution Buffer, Assay Buffer and 1:20 substrate/enhancer mixture are added. After 1-hour incubation at room temperature in the dark, the lysate is transferred to a white 96-well plate (Dynex) and luminescence is read using a LuminoSkan Ascent (Thermo Electron, Woburn, Mass.).

SMILES	IC50
CC1(C)C(=O)Nc2ncc(-c3cccc(F)c3)cc21 [Example 31, 5-(3-Fluoro-phenyl)-3,3-dimethyl-1,3-dihydro-pyrrolo[2,3-b]pyridin-2-one]	4.48 µM

Same assay, conditions: Homo sapiens, T47D, read-out: % inh.

SMILES	inhibition at 3 µM	inhibition at 10 µM
CC1(C)C(=O)Nc2ncc(-c3cccc(F)c3)cc21 [Example 31, 5-(3-Fluoro-phenyl)-3,3-dimethyl-1,3-dihydro-pyrrolo[2,3-b]pyridin-2-one]	95%	92%

Same assay, conditions: Homo sapiens, T47D; @ 3 uM; read-out: % inh.

SMILES	inhibition at 3 µM
O=C1Nc2ncc(-c3cccc(F)c3)cc2C12CCCCC2 [Example 32, 5-(3-Fluoro-phenyl)-3,3-spiro[cyclohexane]-1,3-dihydro-pyrrolo[2,3-b]pyridin-2-one]	58%

Same assay, conditions: Homo sapiens, T47D; @ 10 uM; read-out: % inh.

SMILES	inhibition at 10 µM
O=C1Nc2ncc(-c3cccc(F)c3)cc2C12CCCCC2 [Example 32, 5-(3-Fluoro-phenyl)-3,3-spiro[cyclohexane]-1,3-dihydro-pyrrolo[2,3-b]pyridin-2-one]	58%

Same assay, conditions: Homo sapiens, T47D; Table 4; read-out: IC50

IC50	SMILES
7.03 µM	O=C1Nc2ncc(-c3cccc(F)c3)cc2C12CCCCC2 [Example 32, 5-(3-Fluoro-phenyl)-3,3-spiro[cyclohexane]-1,3-dihydro-pyrrolo[2,3-b]pyridin-2-one]

Same assay, conditions: Homo sapiens, T47D; activation (footnote to Table 3)

EC50	SMILES
1.95 µM	O=C1N=C2C=CC(c3ccc(Cl)c(Cl)c3)=CN2C12CCCC2 [Example 28, 6-(3,4-Dichloro-phenyl)-3,3-spiro[pentane]-imidazo[1,2-a]pyridin-2-one]

Same assay, conditions: Table 3; test concentration not given

SMILES	% inh.
CC1(C)C(=O)N=C2C=CC(Br)=CN21 [Example 1-C1, 6-Bromo-3,3-dimethyl-imidazo[1,2-a]pyridin-2-one]	53%
O=C1N=C2C=CC(Br)=CN2C12CCCC2 [Example 1-C2, 6-Bromo-3,3-spiro[cyclopentane]-imidazo[1,2-a]pyridin-2-one]	35%
CC1(C)C(=O)N=C2C=CC(c3cccc(Cl)c3)=CN21 [Example 2, 6-(3-Chloro-phenyl)-3,3-dimethyl-imidazo[1,2-a]pyridin-2-one]	15%
O=C1N=C2C=CC(c3cccc(Cl)c3)=CN2C12CCCCC2 [Example 3, 6-(3-chloro-phenyl)-3,3-spiro[cyclohexane]-imidazo[1,2-a]pyridin-2-one]	104%
CC1(C)C(=O)N=C2C=CC(c3cccc(C#N)c3)=CN21 [Example 4, 3-(3,3-Dimethyl-2-oxo-2,3-dihydro-imidazo[1,2-a]pyridin-6-yl)-benzonitrile]	19%
CC1(C)C(=O)N=C2C=CC(Cl)=CN21 [Example 5, 6-Chloro-3,3-dimethyl-imidazo[1,2-a]pyridin-2-one]	31%
O=C1N=C2C=CC(Cl)=CN2C12CCCCC2 [Example 6, 6-Chloro-spiro[cyclohexane]-imidazo[1,2-a]pyridin-2-one]	42%
CC1(C)C(=O)N=C2C=CC(c3cc(F)cc(F)c3)=CN21 [Example 7, 6-(3,5-Difluoro-phenyl)-3,3-dimethyl-imidazo[1,2-a]pyridin-2-one]	40%
CC1(C)C(=O)N=C2C=CC(c3cccc([N+](=O)[O-])c3)=CN21 [Example 8, 3,3-Dimethyl-6-(3-nitro-phenyl)-imidazo[1,2-a]pyridin-2-one]	33%
CC1(C)C(=O)N=C2C=CC(c3cccc(C(F)(F)F)c3)=CN21 [Example 9, 3,3-Dimethyl-6-(3-trifluoromethyl-phenyl)-imidazo[1,2-a]pyridin-2-one]	17%
CC1(C)C(=O)N=C2C=CC(c3ccc(F)cc3F)=CN21 [Example 10, 6-(2,4-Difluoro-phenyl)-3,3-dimethyl-imidazo[1,2-a]pyridin-2-one]	29%
CC1(C)C(=O)N=C2C=CC(c3cc(C(F)(F)F)cc(C(F)(F)F)c3)=CN21 [Example 11, 6-(3,5-Bis-trifluoromethyl-phenyl)-3,3-dimethyl-imidazo[1,2-a]pyridin-2-one]	19%
COc1cccc(C2=CN3C(=NC(=O)C3(C)C)C=C2)c1 [Example 12, 6-(3-Methoxy-phenyl)-3,3-dimethyl-imidazo[1,2-a]pyridin-2-one]	3.1%
CC1(C)C(=O)N=C2C=CC(c3cccc(F)c3)=CN21 [Example 13, 6-(3-Fluoro-phenyl)-3,3-dimethyl-imidazo[1,2-a]pyridin-2-one]	14%
CC1(C)C(=O)N=C2C=CC(c3ccccc3Cl)=CN21 [Example 14, 6-(2-Chloro-phenyl)-3,3-dimethyl-imidazo[1,2-a]pyridin-2-one]	0%
O=C1N=C2C=CC(c3cccc(F)c3)=CN2C12CCCCC2 [Example 15, 6-(3-Fluoro-phenyl)-3,3-spiro[cyclohexane]-imidazo[1,2-a]pyridin-2-one]	0%

SMILES	% inh.
COc1cccc(C2=CN3C(=NC(=O)C34CCCCC4)C=C2)c1 [Example 16, 6-(3-Methoxy-phenyl)-3,3-spiro[cyclohexane]-imidazo[1,2-a]pyridin-2-one]	01%
O=C1N=C2C=CC(c3cc(C(F)(F)F)cc(C(F)(F)F)c3)=CN2C12CCCCC2 [Example 17, 6-(3,5-Bis-trifluoromethyl-phenyl)-3,3-spiro[cyclohexane]-imidazo[1,2-a]pyridin-2-one]	04%
O=C1N=C2C=CC(c3cccc([N+](=O)[O-])c3)=CN2C12CCCCC2 [Example 18, 6-(3-nitro-phenyl)-3,3-spiro[cyclohexane]-imidazo[1,2-a]pyridin-2-one]	98%
O=C1N=C2C=CC(c3cccc(C(F)(F)F)c3)=CN2C12CCCCC2 [Example 19, 6-(3-trifluoromethyl-phenyl)-3,3-spiro[cyclohexane]-imidazo[1,2-a]pyridin-2-one]	97%
N#Cc1cccc(C2=CN3C(=NC(=O)C34CCCCC4)C=C2)c1 [Example 20, 6-(3-cyano-phenyl)-3,3-spiro[cyclohexane]-imidazo[1,2-a]pyridin-2-one]	96%
O=C1N=C2C=CC(c3cc(F)cc(F)c3)=CN2C12CCCCC2 [Example 21, 6-(3,5-Difluoro-phenyl)-3,3-spiro[cyclohexane]-imidazo[1,2-a]pyridin-2-one]	99%
O=C1N=C2C=CC(c3ccc(Cl)c(Cl)c3)=CN2C12CCCCC2 [Example 22]	88%
O=C1N=C2C=CC(c3ccc(F)cc3F)=CN2C12CCCCC2 [Example 23, 6-(2,4-Difluoro-phenyl)-3,3-spiro[cyclohexane]-imidazo[1,2-a]pyridin-2-one]	96%
O=C1N=C2C=CC(c3cccc(Cl)c3)=CN2C12CCCC2 [Example 24, 6-(3-chloro-phenyl)-3,3-spiro[pentane]-imidazo[1,2-a]pyridin-2-one]	1%
N#Cc1cccc(C2=CN3C(=NC(=O)C34CCCC4)C=C2)c1 [Example 25, 6-(3-cyano-phenyl)-3,3-spiro[pentane]-imidazo[1,2-a]pyridin-2-one]	2%
O=C1N=C2C=CC(c3cccc(F)c3)=CN2C12CCCC2 [Example 26, 6-(3-Fluoro-phenyl)-3,3-spiro[pentane]-imidazo[1,2-a]pyridin-2-one]	2%
O=C1N=C2C=CC(c3cccc([N+](=O)[O-])c3)=CN2C12CCCC2 [Example 27, 6-(3-nitro-phenyl)-3,3-spiro[pentane]-imidazo[1,2-a]pyridin-2-one]	86%
O=C1N=C2C=CC(c3ccc(Cl)c(Cl)c3)=CN2C12CCCC2 [Example 28, 6-(3,4-Dichloro-phenyl)-3,3-spiro[pentane]-imidazo[1,2-a]pyridin-2-one]	22%
O=C1N=C2C=CC(c3cc(C(F)(F)F)cc(C(F)(F)F)c3)=CN2C12CCCC2 [Example 29, 6-(3,5-Bis-trifluoromethyl-phenyl)-3,3-spiro[pentane]-imidazo[1,2-a]pyridin-2-one]	25%
O=C1N=C2C=CC(c3ccc(F)c(Cl)c3)=CN2C12CCCC2 [Example 30, 6-(3-Chloro-4-fluoro-phenyl)-3,3-spiro[pentane]-imidazo[1,2-a]pyridin-2-one]	21%
